Experimental data from PMC7215373, “Design, Synthesis, and Anticancer Evaluation of Novel Indole Derivatives of Ursolic Acid as Potential Topoisomerase II Inhibitors” (International Journal of Molecular Sciences, 2020).

Experiments:
SMMC-7721 cells = assay: MTT cytotoxicity assay, SMMC-7721; assay type: cell-based, human; details: Homo sapiens, SMMC-7721, 48 h, 48 h exposure
Procedure: (§1) The in vitro cytotoxic activities of synthesized compounds were evaluated against two human hepatocarcinoma cell lines (SMMC-7721 and HepG2) and the human normal hepatocyte cell line (LO2) via MTT assay. All tested compounds were dissolved in DMSO and the stock solutions were diluted by DMEM medium before treatment of the cultured cells. […] Cell lines were obtained from American Tissue Culture Collection (ATCC). Briefly, different tumor cells were grown in DMEM medium supplemented with 10% fetal bovine serum, penicillin (100 U/mL), and streptomycin (50 μg/mL). Cells were harvested at log phase of growth and seeded in 96-well plates (100 μL/well at a density of 2 × 10^5 cells/mL). After 24 h incubation at 37 °C and 5% CO2 to allow cell attachment, cultures were exposed to various concentrations of the isolated compounds for 48 h. Finally, MTT solution (2.5 mg/mL in PBS) was added (40 μL/well). Plates were further incubated for 4 h at 37 °C, and the formazan crystals formed were dissolved by adding 150 μL/well of DMSO. Absorption at 570 nm was measured with an ELISA plate reader. […] Doxorubicin, camptothecin, and etoposide (VP-16) were co-assayed as positive controls.

HepG2 cells = assay: MTT cytotoxicity assay, HepG2; assay type: cell-based, human; details: Homo sapiens, HepG2, 48 h, 48 h exposure
Procedure: as §1

LO2 cells = assay: MTT cytotoxicity assay, normal hepatocyte LO2; assay type: cell-based; details: Homo sapiens, L02, 48 h exposure, normal hepatocyte cell line
Procedure: as §1

DNA topoisomerase I = target: T1, DNA topoisomerase I (Bos taurus, UniProt F1MN93); assay: Topoisomerase I relaxation assay (supercoiled pBR322); assay type: biochemical; details: for inhibition at 100 µM: 100 μM compound, read-out: Topo I Inhibition (%) 100 μM; for inhibition at 20 µM: 20 μM compound, read-out: Topo I Inhibition (%) 20 μM
T1 construct: purchased TaKaRa, Kyoto, Japan
T1 sequence (F1MN93 1-767): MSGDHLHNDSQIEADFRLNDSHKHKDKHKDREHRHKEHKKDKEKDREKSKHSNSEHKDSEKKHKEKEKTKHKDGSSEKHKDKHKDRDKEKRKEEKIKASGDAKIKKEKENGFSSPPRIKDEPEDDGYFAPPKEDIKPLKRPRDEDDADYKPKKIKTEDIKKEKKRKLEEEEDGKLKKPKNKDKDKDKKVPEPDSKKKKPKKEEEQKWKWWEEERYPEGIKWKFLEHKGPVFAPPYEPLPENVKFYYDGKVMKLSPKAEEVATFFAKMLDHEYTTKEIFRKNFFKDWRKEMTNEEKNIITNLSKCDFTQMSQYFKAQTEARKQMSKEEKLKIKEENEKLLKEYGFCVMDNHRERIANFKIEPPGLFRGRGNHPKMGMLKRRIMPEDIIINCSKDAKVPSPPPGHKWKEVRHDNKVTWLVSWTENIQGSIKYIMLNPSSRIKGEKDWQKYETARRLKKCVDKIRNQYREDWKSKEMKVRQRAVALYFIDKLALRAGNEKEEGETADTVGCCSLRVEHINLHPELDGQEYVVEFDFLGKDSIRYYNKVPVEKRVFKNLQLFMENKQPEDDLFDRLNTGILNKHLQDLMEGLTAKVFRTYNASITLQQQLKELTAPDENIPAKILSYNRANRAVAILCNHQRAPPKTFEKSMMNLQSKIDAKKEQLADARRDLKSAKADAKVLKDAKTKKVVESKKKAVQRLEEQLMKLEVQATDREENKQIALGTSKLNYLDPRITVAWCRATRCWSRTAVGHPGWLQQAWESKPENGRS
Procedure: The effect of the tested compounds on Topo I and II activities were evaluated by Topo I/II relaxation assays. The reaction products, relaxed DNA could be distinguished from supercoiled DNA by gel electrophoresis and visualized using gel imaging system. The activity of DNA topoisomerase I (TaKaRa, Kyoto, Japan) was determined by measuring the relaxation of supercoiled DNA pBR322 [32]. Camptothecin was used as a positive control. The reaction mixture was prepared according to the manufacture's protocol, and incubated at 37 °C for 30 min. The reactions were terminated by adding dye solution containing 1% SDS, 0.02% bromophenol blue and 50% glycerol. The mixtures were applied to 1% agarose gel and subjected to electrophoresis for 1 h, in 1× TAE buffer (40 mM Tris-acetate, 1 mM EDTA). Gels were stained for 30 min in 60 mL 1× TAE buffer with ethidium bromide (0.5 μg/mL). DNA bands were visualized by transillumination with UV light and then photographed by a Gel Doc XR+ System (BIO-RAD, Hercules, CA, USA).

Human Topoisomerase IIα = target: T2, Human Topoisomerase IIα (Homo sapiens, UniProt P11388); assay: Topoisomerase II relaxation assay (supercoiled pBR322); assay type: biochemical; details: for inhibition at 20 µM: 20 μM compound, read-out: Topo II Inhibition (%) 20 μM; for inhibition at 100 µM: 100 μM compound, read-out: Topo II Inhibition (%) 100 μM
T2 construct: purchased USB, Affymetrix, Waltham, MA, USA
T2 sequence (P11388 whole entry): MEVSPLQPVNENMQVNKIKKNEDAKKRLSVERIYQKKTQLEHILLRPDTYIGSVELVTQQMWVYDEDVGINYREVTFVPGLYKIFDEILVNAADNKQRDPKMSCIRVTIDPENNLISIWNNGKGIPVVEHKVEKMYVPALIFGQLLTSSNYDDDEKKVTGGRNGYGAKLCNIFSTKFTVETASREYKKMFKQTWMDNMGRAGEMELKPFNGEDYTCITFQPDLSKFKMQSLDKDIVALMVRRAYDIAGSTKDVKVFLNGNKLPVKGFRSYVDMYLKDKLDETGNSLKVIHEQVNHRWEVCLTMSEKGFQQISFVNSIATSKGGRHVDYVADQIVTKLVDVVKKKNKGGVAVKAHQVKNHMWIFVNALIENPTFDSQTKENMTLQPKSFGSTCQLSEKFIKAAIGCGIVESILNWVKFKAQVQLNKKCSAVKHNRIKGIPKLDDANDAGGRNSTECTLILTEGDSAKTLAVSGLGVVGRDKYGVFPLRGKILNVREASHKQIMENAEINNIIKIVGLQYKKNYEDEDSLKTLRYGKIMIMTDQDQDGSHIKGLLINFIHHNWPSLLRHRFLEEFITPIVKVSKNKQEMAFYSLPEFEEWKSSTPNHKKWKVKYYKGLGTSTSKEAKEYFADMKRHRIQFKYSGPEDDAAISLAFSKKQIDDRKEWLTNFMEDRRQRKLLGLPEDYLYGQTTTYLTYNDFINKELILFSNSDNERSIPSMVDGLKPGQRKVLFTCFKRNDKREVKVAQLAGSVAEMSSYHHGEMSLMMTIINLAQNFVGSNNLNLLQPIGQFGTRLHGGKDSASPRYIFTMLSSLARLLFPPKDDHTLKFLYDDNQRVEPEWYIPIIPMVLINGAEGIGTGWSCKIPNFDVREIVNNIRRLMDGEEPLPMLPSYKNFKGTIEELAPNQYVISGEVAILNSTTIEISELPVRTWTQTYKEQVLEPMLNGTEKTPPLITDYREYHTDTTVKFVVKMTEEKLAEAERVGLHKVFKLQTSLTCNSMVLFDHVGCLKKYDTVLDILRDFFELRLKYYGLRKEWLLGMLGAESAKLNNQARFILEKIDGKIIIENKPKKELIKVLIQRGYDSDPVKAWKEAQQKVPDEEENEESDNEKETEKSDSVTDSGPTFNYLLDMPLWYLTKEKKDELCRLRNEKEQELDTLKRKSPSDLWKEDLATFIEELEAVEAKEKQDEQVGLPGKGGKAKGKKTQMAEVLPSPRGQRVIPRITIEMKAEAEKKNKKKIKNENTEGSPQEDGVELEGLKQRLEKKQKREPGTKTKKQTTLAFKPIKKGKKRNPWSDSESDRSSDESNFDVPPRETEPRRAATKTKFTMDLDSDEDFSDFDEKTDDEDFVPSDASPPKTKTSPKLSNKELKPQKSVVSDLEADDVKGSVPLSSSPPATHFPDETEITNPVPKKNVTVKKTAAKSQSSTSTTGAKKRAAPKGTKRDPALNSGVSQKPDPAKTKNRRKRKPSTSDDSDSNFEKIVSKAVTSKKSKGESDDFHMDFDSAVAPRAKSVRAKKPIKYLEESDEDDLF
Procedure: The effect of the tested compounds on Topo I and II activities were evaluated by Topo I/II relaxation assays. The reaction products, relaxed DNA could be distinguished from supercoiled DNA by gel electrophoresis and visualized using gel imaging system. Human Topoisomerase IIα activity was detected by measuring the relaxation of supercoiled pBR322 plasmid DNA [22]. […] For inhibition studies, the compounds were pre-incubated with human Topo IIα and DNA for 15 min. Compounds were used at the appropriate concentrations by dissolving in 2% (v/v) DMSO. DMSO didn't show detrimental effect on the enzyme activity at concentration up to 2% (v/v). Reaction mixture was incubated at 37 °C for 30 min and stopped by the addition of 7 mM EDTA. Reaction product was mixed with DNA loading dye and electrophoresed on 1% TAE-Agarose. The gel was stained with ethidium bromide (0.5 μg/mL) for 30 min, destained twice in 1× TAE buffer, and then visualized using a BIO-RAD Gel Doc XR+ System. Etoposide (VP-16) was co-assayed as a positive control.

Row | Structure (SMILES) | inhibition at 100 µM (DNA topoisomerase I) | inhibition at 20 µM (Human Topoisomerase IIα) | inhibition at 100 µM (Human Topoisomerase IIα) | melting point | inhibition at 20 µM (DNA topoisomerase I) | IC50 (SMMC-7721 cells) | IC50 (HepG2 cells) | IC50 (LO2 cells)
1 | CCN(CC)CCCNC(=O)[C@]12CC[C@@H](C)[C@H](C)C1C1=CCC3[C@@]4(C)Cc5c([nH]c6ccc(C)cc56)C(C)(C)C4CC[C@@]3(C)[C@]1(C)CC2 (stereo partly drawn) [5c, N-(3-(Diethylamino)propyl)-5′-methyl-1′H-ursa-2,12-dieno[3,2-b]indol-28-carboxamide] | 0% | 38.9% | 75.8% | 147 to 149 °C |  | 1.15 ± 0.14 µM | 1.2 ± 0.24 µM | 15.8 ± 1.06 µM
2 | Cc1ccc2[nH]c3c(c2c1)C[C@@]1(C)C(CC[C@]2(C)C1CC=C1C4[C@@H](C)[C@H](C)CC[C@]4(C(=O)NCCCCN(C)C)CC[C@]12C)C3(C)C (stereo partly drawn) [6b, N-(4-(Dimethylamino)butyl)-5′-methyl-1′H-ursa-2,12-dieno[3,2-b]indol-28-carboxamide] | 15.1% | 31.7% | 69% | 163 to 165 °C | 0% | 2.43 ± 0.21 µM | 2.91 ± 0.18 µM | 18.2 ± 1.64 µM
3 | Cc1ccc2[nH]c3c(c2c1)C[C@@]1(C)C(CC[C@]2(C)C1CC=C1C4[C@@H](C)[C@H](C)CC[C@]4(C(=O)NCCCN)CC[C@]12C)C3(C)C (stereo partly drawn) [5a, N-(3-Aminopropyl)-5′-methyl-1′H-ursa-2,12-dieno[3,2-b]indol-28-carboxamide] | 24.5% | 31.2% | 72.3% | 205 to 207 °C | 12.4% | 2.02 ± 0.21 µM | 2.45 ± 0.38 µM | 21.3 ± 1.59 µM
4 | Cc1ccc2[nH]c3c(c2c1)C[C@@]1(C)C(CC[C@]2(C)C1CC=C1C4[C@@H](C)[C@H](C)CC[C@]4(C(=O)NCCNC(=O)[C@]45CC[C@@H](C)[C@H](C)C4C4=CCC6[C@@]7(C)Cc8c([nH]c9ccc(C)cc89)C(C)(C)C7CC[C@@]6(C)[C@]4(C)CC5)CC[C@]12C)C3(C)C (stereo partly drawn) [7a, N,N′-(ethane-1,2-diyl)-bis(5′-methyl-1′H-ursa-2,12-dieno[3,2-b]indol-28-carboxamide)] | 0% | 9.7% | 23.8% | 301 to 303 °C |  | > 50 µM | > 50 µM | > 50 µM
5 | Cc1ccc2[nH]c3c(c2c1)C[C@@]1(C)C(CC[C@]2(C)C1CC=C1C4[C@@H](C)[C@H](C)CC[C@]4(C(=O)NCCN4CCOCC4)CC[C@]12C)C3(C)C (stereo partly drawn) [4e, N-(2-Morpholinoethyl)-5′-methyl-1′H-ursa-2,12-dieno[3,2-b]indol-28-carboxamide] | 0% | 26.8% | 63.3% | 104 to 105 °C |  | 7.82 ± 0.78 µM | 10.7 ± 2.09 µM | > 50 µM

Further lines, with some results ahead:

Row | inhibition at 100 µM (DNA topoisomerase I) | inhibition at 20 µM (Human Topoisomerase IIα) | inhibition at 100 µM (Human Topoisomerase IIα) | melting point | inhibition at 20 µM (DNA topoisomerase I) | Structure (SMILES) | IC50 (SMMC-7721 cells) | IC50 (HepG2 cells) | IC50 (LO2 cells)
6 | 0% | 8.1% | 16.9% | 255 to 258 °C |  | Cc1ccc2[nH]c3c(c2c1)C[C@@]1(C)C(CC[C@]2(C)C1CC=C1C4[C@@H](C)[C@H](C)CC[C@]4(C(=O)NCCCCNC(=O)[C@]45CC[C@@H](C)[C@H](C)C4C4=CCC6[C@@]7(C)Cc8c([nH]c9ccc(C)cc89)C(C)(C)C7CC[C@@]6(C)[C@]4(C)CC5)CC[C@]12C)C3(C)C (stereo partly drawn) [7c, N,N′-(butane-1,4-diyl)-bis(5′-methyl-1′H-ursa-2,12-dieno[3,2-b]indol-28-carboxamide)] | > 50 µM | > 50 µM | > 50 µM
7 | 2% | 9.8% | 17.8% | 276 to 278 °C |  | Cc1ccc2[nH]c3c(c2c1)C[C@@]1(C)C(CC[C@]2(C)C1CC=C1C4[C@@H](C)[C@H](C)CC[C@]4(C(=O)NCCCNC(=O)[C@]45CC[C@@H](C)[C@H](C)C4C4=CCC6[C@@]7(C)Cc8c([nH]c9ccc(C)cc89)C(C)(C)C7CC[C@@]6(C)[C@]4(C)CC5)CC[C@]12C)C3(C)C (stereo partly drawn) [7b, N,N′-(propane-1,3-diyl)-bis(5′-methyl-1′H-ursa-2,12-dieno[3,2-b]indol-28-carboxamide)] | > 50 µM | > 50 µM | > 50 µM
